Laboratory results reported in US20230263900A1, “DENDRIMER-DRUG CONJUGATE” (priority 2020, published 2023).

Assays:
[1] = set-up: species or system rats; conditions: rat, in vivo
Protocol: The dendrimer BHALys[Lys]2[Lys]4[Lys]8[Lys]16(PEG2000)32 was constituted to 10 mg/ml in PBS and stored at −20° C. until required. The construction of the dendrimer was as described previously (Kaminskas L M, et al Mol Pharm. 2008 May-June; 5(3):449-63).
Rats were intravenously administered 1 ml of dendrimer in sterile saline over 2 mins. […] For the pharmacokinetic evaluation of dendrimer administered to the lungs as an aerosolized dose, rats were cannulated only via the right carotid artery. Rats were administered 1 mg of dendrimer in 100 μl saline via intratracheal insertion of the Penn Century micro spray aerosol device to the lungs of rats under isoflurane anaesthesia. […] Plasma, urine, feces and lungs were analysed for radiolabel via liquid scintillation counting
(n=4-5 rats) and data is normalized to 5 mg/kg dendrimer. […] Data in Figure B represents mean±s.d. (n=4 rats) 7 days after the pulmonary dose.

Solubility studies = format: physicochemical
Protocol: The solubility of BHALys[Lys]2[Lys]4[Lys]8[Lys]16[Lys]32[(α-NH-3′ O-Glu-Remdesivir)32(ε-NH-COPEG2000)32] RHa-3 in water was determined to be ≥200 mg/mL (or ≥43.6 mg/mL Remdesivir RHa-1) by adding water (250 μL) to 50.0 mg of BHALys [Lys]2[Lys]4[Lys]8[Lys]16[Lys]32[(α-NH-3′ O-Glu-Remdesivir)32(ε-NH-COPEG2000)32] and swirling briefly. After 2 min, the resulting solution was visually inspected for particulates and found to be a clear solution (see FIG. 2). Solutions shown are 40 mg/ml Remdesivir equivalents (equivalent to 200 mg/ml of conjugate RHa-3).
The solubility of BHALys[Lys]2[Lys]4[Lys]8[Lys]16[Lys]32[(α-NH-6N-TDA-Remdesivir)32(ε-NH-COPEG2000)32] RHa-5, in EtOH:Water (1:9 v/v) was determined to be ≥543 mg/mL (or ≥107 mg/mL Remdesivir RHa-1) by adding water EtOH:Water (1:9 v/v, 400 μL) to 380 mg of RHa-5. The mixture was swirled briefly and left to stand at rt. After 1.5 h the resulting solution (volume recorded=700 μL) was visually inspected for particulates and found to be a clear solution.
The solubility of BHALys[Lys]2[Lys]4[Lys]8[Lys]16[Lys]32[(α-NH-6N-TDA-Remdesivir)32(ε-NH-COPEG1000)32] RHa-17 in EtOH:Water (1:9 v/v) was determined to be ≥354* mg/mL (or ≥85 mg/mL Remdesivir RHa-1) by adding EtOH:Water (1:9 v/v, 958 μL) portionwise to 525 mg of RHa-17, over a period of 1.5 h with intermittent swirling. The resulting solution was visually inspected for particulates and found to be a clear solution.
(*Total volume not recorded. Assumes 1 mg construct contributes to 1 μL of final solution (i.e., total volume of final solution=1483 μL)).

[2] = Release of Remdesivir in PBS buffer (Release Method 1); format: physicochemical; conditions: PBS buffer with 10% v/v DMSO, pH 7.4, 37° C.
Protocol: Release Method 1: An accurately weighed amount of the Remdesivir-dendrimer (10 mg) construct was dissolved in pH 7.4 PBS buffer:DMSO (9:1 v/v) and the volume made up to 20.0 mL in a volumetric flask to give a 0.5 mg/mL stock solution. The stock solution was aliquoted into several 2 mL screw-cap vials, the caps fitted and the vials heated at 37° C. The aliquoted solutions were analyzed at different time points by HPLC (HPLC Method 3). The concentration of Remdesivir RHa-1 was calculated by comparing the area under the peak associated with Remdesivir RHa-1 to a standard curve in MeCN:DMSO (9:1, v/v). The percentage of Remdesivir RHa-1 released is the percentage of available Remdesivir RHa-1 based on the loading of the construct as determined by ^1H NMR analysis (API Loading Method 1).
The extent to which the Remdesivir RHa-1 was released over time in PBS buffer (with 10% v/v DMSO) (pH 7.4) at 37° C. was determined for 5 constructs, RHa-17, RHa-15, RHa-11, RHa-5 and RHa-3 (Release Method 1) over 120 hours.
Trace amounts of other components were also observed (presumed to be degradation products of Remdesivir RHa-1). The area under the resolvable (separated) peaks associated with these degradants was also added to the peak area associated with released Remdesivir RHa-1.
BHALys [Lys]2[Lys]4[Lys]8[Lys]16[Lys]32[(α-NH-6N-TDA-Remdesivir)32(ε-NH-COPEG2000)32] RHa-5 contained 1.77% free Remdesivir RHa-1 at t=0 min. The value of released Remdesivir RHa-1 shown in FIG. 3 has been adjusted to take this into account.

[3] = Viscosity measurements (Viscosity Method 1); format: physicochemical; conditions: 50 mg/mL Remdesivir equivalents in EtOH: Water (1:9 v/v)
Protocol: Viscosities were measured on Anton Paar ViscoQC300 Viscometer using CC-12 cup.
Viscosity Method 1: A reference standard solution (Standard Type: RT500, CAS No. 63148-62-9, Paragon Scientific Ltd) was first recorded and found to be within the range of reported value (at 20° C.: found 556.6 cP, theoretical 551.0 cP; at 25° C.: found 503.3 cP, theoretical 498.6 cP). Accurately weighed quantities of respective conjugates were dissolved in EtOH:Water […] to make a 50 mg/mL Remdesivir equivalent solution (total volume 2.30-2.40 mL) and the viscosity of the solution was recorded at 20° C. and 25° C.
Viscosities of 2 formulations containing either RHa-5 or RHa-17 in EtOH: Water (1:9 v/v) were measured using Viscosity Method 1

[4] = cited from earlier work
in vivo = experiment: in vivo
Protocol: The ability to deliver dendrimer-drug conjugates via the pulmonary route was evaluated.
Male Sprague Dawley (SD) rats (8-9 weeks, 270-320 g) were obtained from Monash Animal Services (VIC, Australia). Female F344 rats (8-10 weeks) were supplied by Animal Resources Centre (Perth, Australia).
Blood samples and urine were then collected for up to 5 days. […] At the completion of the study, bronchoalveolar lavage fluid (BALF), lungs, liver, heart, spleen, kidneys and pancreas were collected from rats for biodistribution analysis. BALF was collected via the intratracheal perfusion of 3×5 ml saline Alveolar macrophages were isolated from BALF via centrifugation at 600×g for 10 mins. […] Plasma, urine, feces, and organs were analysed for radiolabel via liquid scintillation counting. Total doxorubicin in plasma, BALF and lung tissue in pulmonary dosed rats was analysed via a fluorescence HPLC (Kaminskas L M, et al, Nanomedicine. 2012 January; 8(1):103-11).
Data are represented as mean±s.d. (n=3-7).

[5] = male, Sprague-Dawley, rat, in vivo
[6] = male, Sprague-Dawley, rat, in vivo, inhaled or intranasal, 0.6 mg

## BHALys[Lys]2[Lys]4[Lys]8[Lys]16(PEG2000)32
[1]
  Bioavailability after lung delivery: 2.4±3.3%

## BHALys[Lys]2[Lys]4[Lys]8[Lys]16[Lys]32[(α-NH-3′O-Glu-Remdesivir)32(ε-NH-COPEG2000)32] [RHa-3]
Solubility studies; water, conjugate mass, visual inspection after 2 min
  Solubility in water: ≥ 200 mg/mL
Solubility studies; water, expressed as Remdesivir RHa-1
  Solubility in water, as Remdesivir RHa-1: ≥ 43.6 mg/mL
[2]
  Approx. Time taken for 50% Remdesivir release: >120 h

## BHALys[Lys]2[Lys]4[Lys]8[Lys]16[Lys]32[(α-NH-6N-TDA-Remdesivir)32(ε-NH-COPEG1000)32] [RHa-17]
[3]
  Viscosity at 20° C.: 38.99 cP
  Viscosity at 25° C.: 29.32 cP
Solubility studies; EtOH:Water (1:9 v/v), conjugate mass, rt
  Solubility in EtOH:Water (1:9 v/v): ≥ 354 mg/mL
Solubility studies; EtOH:Water (1:9 v/v), expressed as Remdesivir RHa-1
  Solubility in EtOH:Water (1:9 v/v), as Remdesivir RHa-1: ≥ 85 mg/mL
[2]
  Approx. Time taken for 50% Remdesivir release: ~48 h

## N#C[C@@]1(c2ccc3c(N)ncnn23)O[C@H](CO)[C@@H](O)[C@H]1O [GS-441524]
[4]; IV infusion of 200 mg Remdesivir, healthy human subjects
  AUC0-24: 7.7 µM·h
[4]; after 200 mg dose of Remdesivir
  Cmax: 152 ng/mL
[4]; after 30 minutes infusion of Remdesivir
  Peak plasma concentration: about 150 ng/ml

## BHALys[Lys]2[Lys]4[Lys]8[Lys]16[Lys]32[(α-NH-3′O-DGA-Remdesivir)32(ε-NH-COPEG2000)32] [RHa-11]
[2]
  Approx. Time taken for 50% Remdesivir release: ~3 h

## COc1cccc2c1C(=O)c1c(O)c3c(c(O)c1C2=O)C[C@@](O)(C(=O)CO)C[C@@H]3O[C@H]1C[C@H](N)[C@H](O)[C@H](C)O1 [Doxorubicin, doxorubicin]
In vivo; [5]
  Fabs 0-∞, doxorubicin: 83 ± 9%
  Kel, doxorubicin: 0.132 ± 0.010 ^−h
In vivo; [6]
  Tmax: 6 ± 3 min
  half-life: 5 ± 0.4 h
In vivo; male, Sprague-Dawley, rat, in vivo, iv, 0.75 mg/kg
  AUC: 210 ± 40 ng·h/mL
In vivo; male, Sprague-Dawley, rat, plasma, inhaled or intranasal, 0.6 mg
  AUC: 170 ± 20 ng·h/mL
In vivo; rats, intravenous, doxorubicin normalized to 0.75 mg/kg
  Kel, doxorubicin: 0.518 ± 0.312 ^−h
